Measured values reported in patent US20080207521A1, “PEPTIDE LIGAND TO IMPAIR CANCER CELL MIGRATION” (priority 2005, published 2008).

Test system: filamentous actin (F-actin)
Assay: F-actin content of MDA-MB-468 cells (AlexaFluor 488 phalloidin fluorescent microscopy)
Format: cell-based, human
Details: peptide 100 μM; 18 h; compared to untreated cells
Description: MDA-MB-468 cells were detached from the tissue culture dishes by incubation with Versene for 10 min at 37° C., washed, re-suspended as single cells in serum-free DMEM medium supplemented with 0.5% BSA with or without peptide 175 (100 μM), and plated on a cover glass, pre-coated with 10 µg/ml collagen-I, in a cell culture dish. These experiments were terminated after 18 h by fixing the cells with 4% paraformaldehyde for 10 min at 4° C.
The cells were then permeabilized by incubation with 0.5% Trition X-100 for 5 min and blocked by incubation with a 3% BSA solution supplemented with 0.3% Triton X-100 for 45 min. The staining of the cells was performed in the dark by incubation for 40 min with AlexaFluor® 488 phalloidin (Molecular Probes, Eugene, Oreg.) at a dilution of 1:500 and in the presence of 1% BSA. Thereafter the cells were extensively washed and finally mounted with Dako Cytomation fluorescent mounting medium. The samples were examined and photographed in a Nikon Eclipse 800 microscope using a 60× oil immersion objective.
Peptide-induced effects on MDA-MB-468 tumour cell migration and their content of F-actin. (A) The cells were allowed to migrate for 18 h in the absence or presence of the indicated peptides (100 μM) The data in panel A are expressed as means±SEM of 8 separate experiments, each performed in triplicate. * p<0.05. […]

## NKTSEGMDGCEL (Human) [peptide 175, Wnt-5a aa 311-322]
  cellular content of filamentous actin (F-actin): significantly higher cellular content of filamentous actin
